Test results published in ChEMBL document CHEMBL5528035, “Design, Synthesis, and Biological Evaluation for First GPX4 and CDK Dual Inhibitors” (J Med Chem, 2024).
The source made the active and inactive calls. The calls are words filed in the database; no cut-off is given here.

Key:
[1] = target: CDK2/Cyclin A2 (Homo sapiens) (UniProt P24941+P20248); assay: Inhibition of CDK2/CyclinA2 (unknown origin) at 100 nM preincubated for 15 mins followed by substrate and ATP addition incubated for 10 mins by ADP-glo luminescent assay relative to control; format: protein-complex assay; conditions: time 25.0 min
MDA-MB-231 [2] = assay: Induction of ferroptosis in human MDA-MB-231 cells assessed as increase in intracellular ferrous ion level at 0.5 to 2 uM incubated for 24 hrs by ferroOrange probe based flow cytometric analysis; format: functional, cell-based; conditions: dose 0.5-2 µM
[3] = Half life in Sprague-Dawley rat at 10 mg/kg,iv administration measured upto 24 hrs by LC-MS/MS analysis; format: ADME, organism-based; conditions: in vivo
MDA-MB-231 [4] = assay: Induction of cell cycle arrest in human MDA-MB-231 cells assessed as downregulation of phoshorylated Rb at 0.5 to 2 uM incubated for 24 hrs by Western blotting analysis; format: functional, cell-based; conditions: dose 0.5-2 µM
HCT-116 [5] = assay: Induction of ferroptosis in human HCT-116 cells assessed as increase in intracellular ferrous ion level at 0.5 to 2 uM incubated for 24 hrs by ferroOrange probe based flow cytometric analysis; format: functional, cell-based; conditions: dose 0.5-2 µM
MDA-MB-231 [6] = assay: Induction of ferroptosis in human MDA-MB-231 cells assessed as increase in intracellular lipid peroxide level incubated for 24 hrs by flow cytometric analysis; format: functional, cell-based
[7] = Toxicity in BALB/c mouse xenografted with human MDA-MB-231 cells assessed as change in body weight at 40 mg/kg,ip administrated for 21 consecutive days; format: organism-based; conditions: in vivo
HCT-116 [8] = assay: Induction of cell cycle arrest in human HCT-116 cells assessed as downregulation of E2F1 expression at 0.5 to 2 uM incubated for 24 hrs by Western blotting analysis; format: functional, cell-based; conditions: dose 0.5-2 µM
MDA-MB-231 [9] = assay: Antitumor activity against human MDA-MB-231 cells xenografted in BALB/c mouse assessed as decrease in GPX4 expression at 40 mg/kg,ip administrated for 21 consecutive days by immunohistochemistry; format: functional, organism-based
MDA-MB-231 [10] = assay: Antitumor activity against human MDA-MB-231 cells xenografted in BALB/c mouse assessed as decrease in phosphorylated Rb expression at 20 mg/kg,ip administrated for 21 consecutive days by immunohistochemistry; format: functional, organism-based
MDA-MB-231 [11] = assay: Induction of ferroptosis in human MDA-MB-231 cells assessed as downregulation of GPX4 expression incubated for 24 hrs by Western blotting analysis; format: functional, cell-based
MDA-MB-231 [12] = assay: cells; conditions: Homo sapiens, MDA-MB-231, 48 h
Description: Antiproliferative activity against human MDA-MB-231 cells assessed as inhibition of cell growth incubated for 48 hrs by CCK-8 assay

[13] = Toxicity in BALB/c mouse xenografted with human MDA-MB-231 cells assessed as morphological change in spleen at 40 mg/kg,ip administrated for 21 consecutive days by hematoxylin and eosin staining based analysis; format: organism-based; conditions: in vivo
MDA-MB-231 [14] = assay: Induction of apoptosis in human MDA-MB-231 cells assessed as upregulation of Bax expression at 0.5 to 2 uM incubated for 24 hrs by Western blotting analysis; format: functional, cell-based; conditions: dose 0.5-2 µM
HCT-116 [15] = assay: Induction of ferroptosis in human HCT-116 cells assessed as downregulation of GPX4 expression incubated for 24 hrs by Western blotting analysis; format: functional, cell-based
MDA-MB-231 [16] = assay: Antitumor activity against human MDA-MB-231 cells xenografted in BALB/c mouse assessed as tumor growth inhibition at 20 mg/kg,ip administrated for 21 consecutive days; format: functional; conditions: read-out: TGI
A549 = assay: cells; conditions: Homo sapiens, A549, 48 h
Description: Antiproliferative activity against human A549 cells assessed as inhibition of cell growth incubated for 48 hrs by CCK-8 assay

[17] = Toxicity in BALB/c mouse xenografted with human MDA-MB-231 cells assessed as morphological change in heart at 40 mg/kg,ip administrated for 21 consecutive days by hematoxylin and eosin staining based analysis; format: organism-based; conditions: in vivo
CDK6/cyclin D3 = CDK6/cyclin D3 (Homo sapiens, UniProt Q00534); assay: Inhibition of CDK6/CyclinD3 (unknown origin) preincubated for 15 mins followed by substrate and ATP addition incubated for 10 mins by ADP-glo luminescent assay; format: protein-complex assay
[18] = Toxicity in BALB/c mouse xenografted with human MDA-MB-231 cells assessed as morphological change in liver at 20 mg/kg,ip administrated for 21 consecutive days by hematoxylin and eosin staining based analysis; format: organism-based; conditions: in vivo
[19] = Toxicity in BALB/c mouse xenografted with human MDA-MB-231 cells assessed as change in body weight at 20 mg/kg,ip administrated for 21 consecutive days; format: organism-based; conditions: in vivo
MDA-MB-231 [20] = assay: Induction of ferroptosis in human MDA-MB-231 cells assessed as increase in intracellular lipid peroxide level incubated for 24 hrs by […] staining based confocal laser scanning microscopic analysis; format: functional, cell-based
[21] = MRT (0 to t) in Sprague-Dawley rat at 10 mg/kg,iv administration measured upto 24 hrs by LC-MS/MS analysis; format: ADME, organism-based; conditions: in vivo
HCT-116 [22] = assay: Induction of ferroptosis in human HCT-116 cells assessed as increase in intracellular lipid peroxide level incubated for 24 hrs by flow cytometric analysis; format: functional, cell-based
HCT-116 [23] = assay: Induction of cell cycle arrest in human HCT-116 cells assessed as downregulation of phoshorylated Rb at 0.5 to 2 uM incubated for 24 hrs by Western blotting analysis; format: functional, cell-based; conditions: dose 0.5-2 µM
HepG2 = assay: cells; conditions: Homo sapiens, HepG2, 48 h
Description: Antiproliferative activity against human HepG2 cells assessed as inhibition of cell growth incubated for 48 hrs by CCK-8 assay

MDA-MB-231 [24] = assay: Antitumor activity against human MDA-MB-231 cells xenografted in BALB/c mouse assessed as tumor growth inhibition at 40 mg/kg,ip administrated for 21 consecutive days; format: functional; conditions: read-out: TGI
[25] = Toxicity in BALB/c mouse xenografted with human MDA-MB-231 cells assessed as morphological change in heart at 20 mg/kg,ip administrated for 21 consecutive days by hematoxylin and eosin staining based analysis; format: organism-based; conditions: in vivo
MDA-MB-231 [26] = assay: Induction of cell cycle arrest in human MDA-MB-231 cells assessed as downregulation of E2F1 expression at 0.5 to 2 uM incubated for 24 hrs by Western blotting analysis; format: functional, cell-based; conditions: dose 0.5-2 µM
[27] = Toxicity in BALB/c mouse xenografted with human MDA-MB-231 cells assessed as morphological change in spleen at 20 mg/kg,ip administrated for 21 consecutive days by hematoxylin and eosin staining based analysis; format: organism-based; conditions: in vivo
HCT-116 [28] = assay: Induction of ferroptosis in human HCT-116 cells assessed as increase in intracellular ferrous ion level at 0.5 to 2 uM incubated for 24 hrs by ferroOrange probe based confocal laser scanning microscopic analysis; format: functional, cell-based; conditions: dose 0.5-2 µM
[29] = Toxicity in ICR mouse assessed as lethal dose at ip administration for 14 days; format: organism-based; conditions: in vivo, time 14 day
[30] = Tmax in Sprague-Dawley rat at 10 mg/kg,iv administration measured upto 24 hrs by LC-MS/MS analysis; format: ADME, organism-based; conditions: in vivo
[31] = Toxicity in BALB/c mouse xenografted with human MDA-MB-231 cells assessed as morphological change in lung at 20 mg/kg,ip administrated for 21 consecutive days by hematoxylin and eosin staining based analysis; format: organism-based; conditions: in vivo
HCT-116 [32] = assay: Induction of apoptosis in human HCT-116 cells assessed as upregulation of Bax expression at 0.5 to 2 uM incubated for 24 hrs by Western blotting analysis; format: functional, cell-based; conditions: dose 0.5-2 µM
HCT-116 [33] = assay: Induction of ferroptosis in human HCT-116 cells assessed as increase in intracellular lipid peroxide level incubated for 24 hrs by […] staining based confocal laser scanning microscopic analysis; format: functional, cell-based
[34] = Clearance in Sprague-Dawley rat at 10 mg/kg,iv administration measured upto 24 hrs by LC-MS/MS analysis; format: ADME, organism-based; conditions: in vivo

CDK6/cyclin D3, sequence (P30281 whole entry): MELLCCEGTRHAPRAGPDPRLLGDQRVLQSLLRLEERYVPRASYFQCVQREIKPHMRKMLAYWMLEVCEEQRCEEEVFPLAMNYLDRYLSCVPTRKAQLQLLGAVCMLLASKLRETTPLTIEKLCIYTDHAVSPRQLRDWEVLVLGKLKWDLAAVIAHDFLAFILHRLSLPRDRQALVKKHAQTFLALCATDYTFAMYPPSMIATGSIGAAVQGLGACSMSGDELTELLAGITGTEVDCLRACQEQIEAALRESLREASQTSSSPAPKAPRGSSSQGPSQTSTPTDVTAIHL
CDK6/cyclin D3, sequence (Q00534 whole entry): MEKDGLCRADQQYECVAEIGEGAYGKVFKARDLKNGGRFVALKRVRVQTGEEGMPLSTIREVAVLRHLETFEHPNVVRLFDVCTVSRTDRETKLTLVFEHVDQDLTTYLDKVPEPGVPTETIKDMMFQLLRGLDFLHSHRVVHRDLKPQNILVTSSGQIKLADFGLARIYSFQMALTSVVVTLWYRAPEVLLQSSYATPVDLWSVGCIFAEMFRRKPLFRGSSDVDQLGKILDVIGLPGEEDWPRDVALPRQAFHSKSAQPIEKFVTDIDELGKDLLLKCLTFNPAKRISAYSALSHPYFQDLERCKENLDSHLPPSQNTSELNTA

## COc1ccc2c(c1)NC(=O)/C2=C1\Nc2ccccc2\C1=N/OCCCNC(=O)CCn1cc(COc2ccc(N(C(=O)CCl)C(C(=O)NCCc3ccccc3)c3cccs3)cc2Cl)nn1 (configuration not stated)
[1]
  inhibition: 10.7%
MDA-MB-231 [2]
  Activity: Active
[3]
  half-life: 5.4 h
MDA-MB-231 [4]
  Activity: Active
HCT-116 [5]
  Activity: Active
MDA-MB-231 [6]
  Activity: Dose-Dependent Effect
[7]
  Activity: Non-Toxic
HCT-116 [8]
  Activity: Active
MDA-MB-231 [9]
  Activity: Active
MDA-MB-231 [10]
  Activity: Active
MDA-MB-231 [11]
  Activity: Dose-Dependent Effect
MDA-MB-231 [12]
  IC50: 800 nM
[13]
  Activity: Non-Toxic
MDA-MB-231 [14]
  Activity: Active
HCT-116 [15]
  Activity: Dose-Dependent Effect
MDA-MB-231 [16]
  inhibition in vivo at 20 mg/kg: 67.8%
A549
  IC50: 1020 nM
[17]
  Activity: Non-Toxic
CDK6/cyclin D3
  IC50: 68.1 nM
[18]
  Activity: Non-Toxic
[19]
  Activity: Non-Toxic
MDA-MB-231 [20]
  Activity: Dose-Dependent Effect
[21]
  MRT last at 24 h: 3.6 h
HCT-116 [22]
  Activity: Dose-Dependent Effect
HCT-116 [23]
  Activity: Active
HepG2
  IC50: 1490 nM
MDA-MB-231 [24]
  inhibition in vivo at 40 mg/kg: 83.3%
[25]
  Activity: Non-Toxic
MDA-MB-231 [26]
  Activity: Active
[27]
  Activity: Non-Toxic
HCT-116 [28]
  Activity: Active
[29]
  LD50 at 336 h: 185 mg/kg
[30]
  Tmax: 0.8 h
[31]
  Activity: Non-Toxic
HCT-116 [32]
  Activity: Active
HCT-116 [33]
  Activity: Dose-Dependent Effect
[34]
  clearance: 10.2 mL/min/kg
